Measured values from ChEMBL document CHEMBL3885861, “Open TG-GATES”.

Species on record: Rattus norvegicus
Test: Open TG-GATES - Regimen: Single
Format: toxicity, organism-based, Sprague-Dawley
Design: regimen Single, gender Male, age 6 weeks
Settings: in vivo, iv, route intravenous injection; for TBIL / TC / TG / TP / gamma-GTP / A/G / ALP / ALT / AST / BUN / CRE / Ca / Cl / DBIL / GLC / IP / K / LDH / Na / PL / RALB: tissue Plasma; for APTT / Bas / Eos / Fbg / Hb / Ht / Lym / MCH / MCHC / MCV / Mono / Neu / PT / Plat / RBC / Ret / WBC: tissue Blood; for KIDNEY_L / KIDNEY_R / KIDNEY_TOTAL: tissue Kidney; for LIVER: tissue Liver
[1] = 0 mg/kg, 24 h, dose level Control

SMILES: C[C@@H]1C[C@@H]([C@H](O)CC2CC(=O)NC(=O)C2)C(=O)[C@@H](C)C1 [CYCLOHEXIMIDE]
- TBIL [1]: 0.018 mg/dL
- TC [1]: 75 mg/dL
- TG [1]: 83.2 mg/dL
- TP [1]: 5.6 g/dL
- gamma-GTP [1]: 1.8 IU/L
- TERMINAL_BW (1 mg/kg, 3 h, dose level Low): 216.3 g
- APTT (1 mg/kg, 3 h, dose level Low): 20.1 s
- Bas (1 mg/kg, 3 h, dose level Low): 0%
- Eos (1 mg/kg, 3 h, dose level Low): 0.6%
- Fbg (1 mg/kg, 3 h, dose level Low): 275.2 mg/dL
- Hb (1 mg/kg, 3 h, dose level Low): 13.1 g/dL
- Ht (1 mg/kg, 3 h, dose level Low): 38.5%
- Lym (1 mg/kg, 3 h, dose level Low): 73.2%
- MCH (1 mg/kg, 3 h, dose level Low): 21.7 pg
- MCHC (1 mg/kg, 3 h, dose level Low): 34%
- MCV (1 mg/kg, 3 h, dose level Low): 63.7 fL
- Mono (1 mg/kg, 3 h, dose level Low): 2.4%
- Neu (1 mg/kg, 3 h, dose level Low): 22.2%
- PT (1 mg/kg, 3 h, dose level Low): 17.6 s
- Plat (1 mg/kg, 3 h, dose level Low): 121.9 x10_4/uL
- RBC (1 mg/kg, 3 h, dose level Low): 605.6 x10_4/ul
- Ret (1 mg/kg, 3 h, dose level Low): 8.4%
- WBC (1 mg/kg, 3 h, dose level Low): 174.9 x10_2/uL
- KIDNEY_L (1 mg/kg, 3 h, dose level Low): 0.9 g
- KIDNEY_R (1 mg/kg, 3 h, dose level Low): 0.9 g
- KIDNEY_TOTAL (1 mg/kg, 3 h, dose level Low): 1.9 g
- LIVER (1 mg/kg, 3 h, dose level Low): 9 g
- A/G (1 mg/kg, 3 h, dose level Low): 1.4
- ALP (1 mg/kg, 3 h, dose level Low): 1054.4 IU/L
- ALT (1 mg/kg, 3 h, dose level Low): 46 IU/L
- AST (1 mg/kg, 3 h, dose level Low): 86 IU/L
- BUN (1 mg/kg, 3 h, dose level Low): 23.6 mg/dL
- CRE (1 mg/kg, 3 h, dose level Low): 0.1 mg/dL
- Ca (1 mg/kg, 3 h, dose level Low): 9.6 mg/dL
- Cl (1 mg/kg, 3 h, dose level Low): 107.4 meq/L
- DBIL (1 mg/kg, 3 h, dose level Low): 0.002 mg/dL
- GLC (1 mg/kg, 3 h, dose level Low): 145.6 mg/dL
- IP (1 mg/kg, 3 h, dose level Low): 9.1 mg/dL
- K (1 mg/kg, 3 h, dose level Low): 4.3 meq/L
- LDH (1 mg/kg, 3 h, dose level Low): 174 IU/L
- Na (1 mg/kg, 3 h, dose level Low): 142.2 meq/L
- PL (1 mg/kg, 3 h, dose level Low): 78.8 mg/dL
- RALB (1 mg/kg, 3 h, dose level Low): 2.8 g/dL
- TBIL (1 mg/kg, 3 h, dose level Low): 0.016 mg/dL
- TC (1 mg/kg, 3 h, dose level Low): 55.2 mg/dL
- TG (1 mg/kg, 3 h, dose level Low): 61.6 mg/dL
- TP (1 mg/kg, 3 h, dose level Low): 4.9 g/dL
- gamma-GTP (1 mg/kg, 3 h, dose level Low): 1.6 IU/L
- TERMINAL_BW (1 mg/kg, 6 h, dose level Low): 217.9 g
- APTT (1 mg/kg, 6 h, dose level Low): 25.1 s
- Bas (1 mg/kg, 6 h, dose level Low): 0%
- Eos (1 mg/kg, 6 h, dose level Low): 1%
- Fbg (1 mg/kg, 6 h, dose level Low): 276 mg/dL
- Hb (1 mg/kg, 6 h, dose level Low): 13.2 g/dL
- Ht (1 mg/kg, 6 h, dose level Low): 39.6%
- Lym (1 mg/kg, 6 h, dose level Low): 65.2%
- MCH (1 mg/kg, 6 h, dose level Low): 21.2 pg
- MCHC (1 mg/kg, 6 h, dose level Low): 33.4%
- MCV (1 mg/kg, 6 h, dose level Low): 63.4 fL
- Mono (1 mg/kg, 6 h, dose level Low): 2.8%
- Neu (1 mg/kg, 6 h, dose level Low): 30%
- PT (1 mg/kg, 6 h, dose level Low): 19.7 s
- Plat (1 mg/kg, 6 h, dose level Low): 107.5 x10_4/uL
- RBC (1 mg/kg, 6 h, dose level Low): 625.2 x10_4/ul
- Ret (1 mg/kg, 6 h, dose level Low): 7.7%
- WBC (1 mg/kg, 6 h, dose level Low): 190 x10_2/uL
- KIDNEY_L (1 mg/kg, 6 h, dose level Low): 0.9 g
- KIDNEY_R (1 mg/kg, 6 h, dose level Low): 1 g
- KIDNEY_TOTAL (1 mg/kg, 6 h, dose level Low): 1.9 g
- LIVER (1 mg/kg, 6 h, dose level Low): 8.6 g
- A/G (1 mg/kg, 6 h, dose level Low): 1.5
- ALP (1 mg/kg, 6 h, dose level Low): 1085.8 IU/L
- ALT (1 mg/kg, 6 h, dose level Low): 45 IU/L
- AST (1 mg/kg, 6 h, dose level Low): 82.6 IU/L
- BUN (1 mg/kg, 6 h, dose level Low): 18.2 mg/dL
- CRE (1 mg/kg, 6 h, dose level Low): 0.1 mg/dL
- Ca (1 mg/kg, 6 h, dose level Low): 8.6 mg/dL
- Cl (1 mg/kg, 6 h, dose level Low): 105.4 meq/L
- DBIL (1 mg/kg, 6 h, dose level Low): 0.004 mg/dL
- GLC (1 mg/kg, 6 h, dose level Low): 146.2 mg/dL
- IP (1 mg/kg, 6 h, dose level Low): 9.4 mg/dL
- K (1 mg/kg, 6 h, dose level Low): 3.6 meq/L
- LDH (1 mg/kg, 6 h, dose level Low): 164.8 IU/L
- Na (1 mg/kg, 6 h, dose level Low): 140.8 meq/L
- PL (1 mg/kg, 6 h, dose level Low): 74 mg/dL
- RALB (1 mg/kg, 6 h, dose level Low): 3 g/dL
- TBIL (1 mg/kg, 6 h, dose level Low): 0.01 mg/dL
- TC (1 mg/kg, 6 h, dose level Low): 42.8 mg/dL
- TG (1 mg/kg, 6 h, dose level Low): 83.8 mg/dL
- TP (1 mg/kg, 6 h, dose level Low): 5 g/dL
- gamma-GTP (1 mg/kg, 6 h, dose level Low): 1.4 IU/L
- TERMINAL_BW (1 mg/kg, 9 h, dose level Low): 216 g
- APTT (1 mg/kg, 9 h, dose level Low): 26 s
- Bas (1 mg/kg, 9 h, dose level Low): 0%
- Eos (1 mg/kg, 9 h, dose level Low): 0%
- Fbg (1 mg/kg, 9 h, dose level Low): 276.6 mg/dL
- Hb (1 mg/kg, 9 h, dose level Low): 13.8 g/dL
- Ht (1 mg/kg, 9 h, dose level Low): 41.2%
- Lym (1 mg/kg, 9 h, dose level Low): 70.2%
- MCH (1 mg/kg, 9 h, dose level Low): 21.1 pg
- MCHC (1 mg/kg, 9 h, dose level Low): 33.4%
- MCV (1 mg/kg, 9 h, dose level Low): 63.1 fL
- Mono (1 mg/kg, 9 h, dose level Low): 1.8%
- Neu (1 mg/kg, 9 h, dose level Low): 26.8%
- PT (1 mg/kg, 9 h, dose level Low): 20.4 s
- Plat (1 mg/kg, 9 h, dose level Low): 122.9 x10_4/uL
- RBC (1 mg/kg, 9 h, dose level Low): 653.8 x10_4/ul
- Ret (1 mg/kg, 9 h, dose level Low): 7%
- WBC (1 mg/kg, 9 h, dose level Low): 187.2 x10_2/uL
- KIDNEY_L (1 mg/kg, 9 h, dose level Low): 0.9 g
- KIDNEY_R (1 mg/kg, 9 h, dose level Low): 0.9 g
- KIDNEY_TOTAL (1 mg/kg, 9 h, dose level Low): 1.9 g
- LIVER (1 mg/kg, 9 h, dose level Low): 8.9 g
- A/G (1 mg/kg, 9 h, dose level Low): 1.4
- ALP (1 mg/kg, 9 h, dose level Low): 1037.4 IU/L
- ALT (1 mg/kg, 9 h, dose level Low): 39.6 IU/L
- AST (1 mg/kg, 9 h, dose level Low): 78.2 IU/L
- BUN (1 mg/kg, 9 h, dose level Low): 16 mg/dL
- CRE (1 mg/kg, 9 h, dose level Low): 0.1 mg/dL
- Ca (1 mg/kg, 9 h, dose level Low): 9.5 mg/dL
- Cl (1 mg/kg, 9 h, dose level Low): 106.2 meq/L
- DBIL (1 mg/kg, 9 h, dose level Low): 0.008 mg/dL
- GLC (1 mg/kg, 9 h, dose level Low): 162.6 mg/dL
- IP (1 mg/kg, 9 h, dose level Low): 8.9 mg/dL
- K (1 mg/kg, 9 h, dose level Low): 3.9 meq/L
- LDH (1 mg/kg, 9 h, dose level Low): 205 IU/L
- Na (1 mg/kg, 9 h, dose level Low): 140.4 meq/L
- PL (1 mg/kg, 9 h, dose level Low): 90 mg/dL
- RALB (1 mg/kg, 9 h, dose level Low): 2.8 g/dL
- TBIL (1 mg/kg, 9 h, dose level Low): 0.022 mg/dL
- TC (1 mg/kg, 9 h, dose level Low): 56.2 mg/dL
- TG (1 mg/kg, 9 h, dose level Low): 38.4 mg/dL
- TP (1 mg/kg, 9 h, dose level Low): 4.8 g/dL
- gamma-GTP (1 mg/kg, 9 h, dose level Low): 1 IU/L
- TERMINAL_BW (1 mg/kg, 24 h, dose level Low): 227.7 g
- APTT (1 mg/kg, 24 h, dose level Low): 23.9 s
- Bas (1 mg/kg, 24 h, dose level Low): 0%
- Eos (1 mg/kg, 24 h, dose level Low): 0.2%
- Fbg (1 mg/kg, 24 h, dose level Low): 334.6 mg/dL
- Hb (1 mg/kg, 24 h, dose level Low): 13.2 g/dL
- Ht (1 mg/kg, 24 h, dose level Low): 39.8%
- Lym (1 mg/kg, 24 h, dose level Low): 85.4%
- MCH (1 mg/kg, 24 h, dose level Low): 20.5 pg
- MCHC (1 mg/kg, 24 h, dose level Low): 33.1%
- MCV (1 mg/kg, 24 h, dose level Low): 61.8 fL
- Mono (1 mg/kg, 24 h, dose level Low): 2%
- Neu (1 mg/kg, 24 h, dose level Low): 10.6%
- PT (1 mg/kg, 24 h, dose level Low): 16.8 s
- Plat (1 mg/kg, 24 h, dose level Low): 115.4 x10_4/uL
- RBC (1 mg/kg, 24 h, dose level Low): 643.4 x10_4/ul
- Ret (1 mg/kg, 24 h, dose level Low): 6%
- WBC (1 mg/kg, 24 h, dose level Low): 148.3 x10_2/uL
- KIDNEY_L (1 mg/kg, 24 h, dose level Low): 1 g
- KIDNEY_R (1 mg/kg, 24 h, dose level Low): 1 g
- KIDNEY_TOTAL (1 mg/kg, 24 h, dose level Low): 2 g
- LIVER (1 mg/kg, 24 h, dose level Low): 10.9 g
- A/G (1 mg/kg, 24 h, dose level Low): 1.3
- ALP (1 mg/kg, 24 h, dose level Low): 1100.2 IU/L
- ALT (1 mg/kg, 24 h, dose level Low): 31.2 IU/L
- AST (1 mg/kg, 24 h, dose level Low): 53.4 IU/L
- BUN (1 mg/kg, 24 h, dose level Low): 12.2 mg/dL
- CRE (1 mg/kg, 24 h, dose level Low): 0.2 mg/dL
- Ca (1 mg/kg, 24 h, dose level Low): 10.2 mg/dL
- Cl (1 mg/kg, 24 h, dose level Low): 107.6 meq/L
- DBIL (1 mg/kg, 24 h, dose level Low): 0.006 mg/dL
- GLC (1 mg/kg, 24 h, dose level Low): 197.2 mg/dL
- IP (1 mg/kg, 24 h, dose level Low): 6.6 mg/dL
